A short description of data set [1]: LogP-Value (HCOOH). It counts as physicochemical. The settings on record: for chromatographic logP: HCOOH (formic acid).
Data set [2] deals with Lucilia cuprina. The data set can be described thus: Lucilia cuprina test (LUCICU). The format is in vivo. The settings on record: 48 h. On the procedure: Lucilia cuprina—test (LUCICU)
(§1) Solvent: dimethyl sulfoxide
10 mg active compound are dissolved in 0,5 ml Dimethylsulfoxid. Serial dilutions are made to obtain the desired rates.
Approximately 20 1st instar larvae of the Australian sheep blowfly (Lucilia cuprina) are transferred into a test tube containing minced horse meat and compound solution of the desired concentration.
After 2 days mortality in % is determined. 100% means all the larvae have been killed; 0% means none of the larvae have been killed.

Data set [3] concerns Musca domestica. Kind of data set: Musca domestica test (MUSCDO). It counts as in vivo. The settings on record: 48 h. On the procedure:
Musca domestica—test (MUSCDO)
as §1
To produce a suitable preparation of active compound, 10 mg of active compound are dissolved in 0.5 ml solvent, and the concentrate is diluted with water to the desired concentration.
10 adult house flies (Musca domestica) are transferred into a container, containing a sponge soaked with a mixture of sugar solution and compound solution of the desired concentration.
After 2 days mortality in % is determined. 100% means all the flies have been killed; 0% means none of the flies have been killed.

Data set [4] deals with Ctenocephalides felis. Kind of data set: Ctenocephalides felis in-vitro contact test, adult cat flea. The settings on record: 5 μg/cm^2 (=500 g/ha), after 48 hours. It counts as in vivo. As for the experimental part:
Ctenocephalides felis—in-vitro contact tests adult cat flea
9 mg compound is solved in 1 ml acetone and diluted with acetone to the desired concentration. 250 μl of the test solution is filled in 25ml glass test tubes and homogeneously distributed on the inner walls by rotation and tilting on a shaking device (2 h at 30 rpm). With a compound concentration of 900 ppm, an inner surface of 44,7 cm^2 and a homogeneous distribution, a dose of 5 μg/cm^2 is achieved.
After the solvent has evaporated, each test tube is filled with 5-10 adult cat fleas (Ctenocephalides felis), closed with a perforated lid and incubated in a lying position at room temperature and relative humidity. After 48 hours efficacy is determined. The fleas are patted on the ground of the tubes and are incubated on a heating plate at 45-50° C. for at most 5 minutes Immotile or uncoordinated moving fleas, which are not able to escape the heat by climbing upwards, are marked as dead or moribund.
An efficacy of 100% means all fleas are dead or moribund; 0% means no fleas are dead or moribund.

In data set [5] the test system is Diabrotica balteata. The data set can be described thus: Diabrotica balteata spray test. It counts as in vivo. The settings on record: 160 gg/well, larvae on germinated wheat seeds, after 7 days. On the procedure: Diabrotica balteata—spray test
Further test concentrations are prepared by dilution with emulsifier containing water.
Soaked wheat seeds (Trificum aestivum) are placed in a multiple well plate filled with agar and some water and are incubated for 1 day to germinate (5 seeds per well). The germinated wheat seeds are sprayed with a test solution containing the desired concentration of the active ingredient. Afterwards each unit is infected with 10-20 larvae of the banded cucumber beetle (Diabrofica balteata).
After 7 days efficacy in % is determined.

For data set [6], the system named is Nilaparvata lugens. Kind of data set: Nilaparvata lugens spray test (solvent 52.5 parts acetone, 7 parts dimethylformamide). The format is in vivo. The settings on record: in Oryza sativa, 96 h. On the procedure: (§2) Nilaparvata Wens—spray test
To produce a suitable preparation of active compound, 1 part by weight of active compound is mixed with the stated amount of solvents and is diluted with water, containing an emulsifier concentration of 1000 ppm, to the desired concentration. Further test concentrations are prepared by dilution with emulsifier containing water Ammonium salt and/or penetration enhancer in a dosage of 1000 ppm are added to the desired concentration if necessary.
Rice plants (Oryza sativa) are treated by being sprayed with the desired concentration of the active compound and are infested with larvae of the brown planthopper (Nilaparvata lugens).
(§3) After 4 days mortality in % is determined. 100% means all planthoppers have been killed and 0% means none of the planthoppers have been killed.

The subject of data set [7] is Nezara viridula. Kind of data set: Nezara viridula spray test (solvent 52.5 parts acetone, 7 parts dimethylformamide). The settings on record: in Hordeum vulgare, 96 h. It counts as in vivo. On the procedure:
Nezara viridula—spray test
To produce a suitable preparation of active compound, 1 part by weight of active compound is mixed with the stated amount of solvent, and the concentrate is diluted with water, containing an emulsifier concentration of 1000 ppm, to the desired concentration Ammonium salt and/or penetration enhancer in a dosage of 1000 ppm are added to the desired concentration if necessary.
Barley plants (Hordeum vulgare) infested with larvae of the southern green stink bug (Nezara viridula) are sprayed with a test solution containing the desired concentration of the active ingredient.
After 4 days mortality in % is determined. 100% means all the stink bugs have been killed; 0% means none of the stink bugs have been killed.

The subject of data set [8] is Myzus persicae. The data set can be described thus: Myzus persicae spray test. It counts as in vivo. The settings on record: in Brassica rapa, foliar. On the procedure:
Myzus persicae—spray test
(§4) To produce a suitable preparation of active compound, 1 part by weight of active compound is mixed with the stated amount of solvents and is diluted with water, containing an emulsifier concentration of 1000 ppm, to the desired concentration. Further test concentrations are prepared by dilution with emulsifier containing water.
Chinese cabbage (Brassica pekinensis) leaf disks infected with all instars of the green peach aphid (Myzus persicae), are sprayed with a preparation of the active ingredient of the desired concentration.
After 5-6 days mortality in % is determined. 100% means all aphids have been killed and 0% means none of the aphids have been killed.

Data set [9] deals with Ctenocephalides felis. Kind of data set: Ctenocephalides felis oral test (CTECFE). The format is in vivo. The settings on record: 48 h, 100 ppm in cattle blood, adult unfed cat fleas, after 2 days. As for the experimental part: Ctenocephalides felis—oral test (CTECFE)
as §1
To produce a suitable preparation of active compound, 10 mg of active compound are dissolved in 0.5 ml solvent, and the concentrate is diluted with cattle blood to the desired concentration.
Approximately 20 adult unfed cat fleas (Ctenocephalides felis) are placed in flea chambers. The blood chamber, sealed with parafilm on the bottom, are filled with cattle blood supplied with compound solution and placed on the gauze covered top of the flea chamber, so that the fleas are able to suck the blood. The blood chamber is heated to 37° C. whereas the flea chamber is kept at room temperature.
After 2 days mortality in % is determined. 100% means all the fleas have been killed; 0% means none of the fleas have been killed.

Data set [10] has as its system Nilaparvata lugens. The data set can be described thus: Nilaparvata lugens spray test (solvent 78.0 parts acetone, 1.5 parts dimethylformamide). It counts as in vivo. The settings on record: in Oryza sativa, 96 h. As for the experimental part: as §2, §4
Rice plants (Oryza sativa) are sprayed with a preparation of the active ingredient of the desired concentration and the plants are infested with the brown planthopper (Nilaparvata lugens).
as §3

Data set [11] concerns Myzus persicae. Kind of data set: Myzus persicae oral test. The format is in vivo. The settings on record: 120 h. As for the experimental part:
To produce a suitable preparation of active compound, 1 part by weight of active compound is mixed with the stated amount of solvent, and the concentrate is diluted with water to the desired concentration.
50 μl compound solution is filled in microtiter plates and 150 μl IPL41 insect medium (33% +15% sugar) is added to obtain a total volume of […] per well. Afterwards the plates are sealed with parafilm through which a mixed population of the green peach aphid (Myzus persicae) can suck on the compound preparation.
After 5 days mortality in % is determined. 100% means all aphids have been killed and 0% means none of the aphids have been killed.

The test system of data set [12] is Phaedon cochleariae. The data set can be described thus: Phaedon cochleariae spray test. The format is in vivo. The settings on record: foliar, 168 h, larvae on Chinese cabbage leaf disks, after 7 days. On the procedure: Phaedon cochleariae—spray test
as §4
Chinese cabbage (Brassica pekinensis) leaf disks are sprayed with a preparation of the active ingredient of the desired concentration. Once dry, the leaf disks are infested with mustard beetle larvae (Phaedon cochleariae).
After 7 days mortality in % is determined. 100% means all beetle larvae have been killed and 0% means none of the beetle larvae have been killed.

Setting [13] is: 100 ppm, 1st instar larvae, after 2 days, read-out: mortality.

Where two headings read alike, the source gives them in different places.

What is called chromatographic logP is a lipophilicity value derived from retention on a column. Lower therefore signals lower lipophilicity. Broadly, the mortality is the share of the test organisms that died. `O=C(/C=C1\SCCN1Cc1cnc(Cl)c(F)c1)C(F)(F)F` [Example I-1]: in data set [1], the “LogP-Value (HCOOH)” value is listed as 2,48 and the chromatographic logP was determined as 2.47. In addition, the mortality at 100 ppm in data set [2] came to 100%. The compound also returned a mortality at 20 ppm in data set [3] of 90%. Also, the “efficacy (fleas dead or moribund)” value in [4] came to 100%. In data set [5], the “efficacy (seedlings grown up)” value worked out at 100%. The mortality at 500 g/ha in data set [6] was 100%. The mortality at 500 g/ha in data set [7] turned out to be 100%. This compound had a mortality at 100 g/ha in data set [8] of 100%.
Take `O=C(/C=C1\NCCN1Cc1cnc(Cl)c(F)c1)C(F)(F)F` [Example I-2, 3-[1-[(6-Chloro-5-fluoro-3-pyridinyl)methyl]-2-imidazolidinylidene]-1,1,1-trifluoro-2-propanone]: the chromatographic logP in data set [1] came to 2.19. In addition, the mortality at 100 ppm in [2] (setting [13]) and in [9] was 100% in each case. In [3], this compound gave a mortality at 20 ppm of 100%. The “efficacy (fleas dead or moribund)” value in data set [4] is on record as 100%. Moreover, the “efficacy (seedlings grown up)” value in [5] turned out to be 100%. Moreover, the mortality at 500 g/ha in data set [6] worked out at 100%; in data set [7], 90%. In data set [8], the mortality at 100 g/ha amounted to 100%.
Regarding `Fc1cc(CN2CCS/C2=C\C(=S)C(F)(F)F)cnc1Cl` [Example I-3, 3-[3-[(6-Chloro-5-fluoro-3-pyridinyl)methyl]-2-thiazolidinylidene]-1,1,1-trifluoro-2-propanthione], in data set [1], the chromatographic logP turned out to be 1.2. This compound yielded a mortality at 100 ppm in data set [2] of 100%. The same compound showed a mortality at 500 g/ha in [10] of 100%. Besides, in [5], the “efficacy (seedlings grown up)” value came to 100%. In data set [11], this compound yielded a mortality at 4 ppm of 100% and a mortality at 20 ppm of 100%.
With `Fc1cc(CN2CCN/C2=C\C(=S)C(F)(F)F)cnc1Cl` [Example I-4, 3-[1-[(6-Chloro-5-fluoro-3-pyridinyl)methyl]-2-imidazolidinylidene]-1,1,1-trifluoro-2-propanthione], the “LogP-Value (HCOOH)” value in data set [1] is given as 2,61. Besides, the chromatographic logP in data set [1] came out at 2.59. Also, the mortality at 100 ppm in data set [2] (setting [13]) was found to be 100%; in data set [9], 95%. For the same compound, the mortality at 500 g/ha in [10] came to 100%; in [12] it was 83%. Further, the “efficacy (fleas dead or moribund)” value in data set [4] was found to be 100%. For the same compound, the “efficacy (seedlings grown up)” value in [5] is 100%. Besides, the mortality at 4 ppm in data set [11] was 100%.

(Values after patent US20190150445A1, “SUBSTITUTED HALOGEN(THIO)ACYL COMPOUNDS” (priority 2016, published 2019).)
